The results in this text go back to patent EP4644383A1 (Jiangsu Yahong Meditech Co., Ltd., priority 2022, dated 2024).

Like-named read-outs stand apart in the source and are kept apart here.

What all share (format): cell-based
The subject of assay [1] is Ba/F3-FGFR3-BAIAP2L1 cells. The assay can be described thus: Inhibition of proliferation activity of Ba/F3-FGFR3-BAIAP2L1 cells (CellTiter-Glo). Conditions: for IC50: read-out: IC50 (nM) Ba/F3-FGFR3-BAIAP2L1; for Selectivity (X) FGFR1/FGFR3: ratio of IC50 Ba/F3-BCR-FGFR1 to IC50 Ba/F3-FGFR3-BAIAP2L1. As for the experimental part:
The present experiment used CellTiter-Glo® Luminescent Cell Viability Assay (Promega: G7573) kit, which was a homogeneous cell viability detection method and determined the cell viability of cultured cells by quantifying ATP. • ① Ba/F3-BCR-FGFR1 or Ba/F3-FGFR3-BAIAP2L1 cells were cultured in 1640 complete medium (Gibco: 11879020) (10% FBS (Gibco: 10091-148)+1% Pen Strep (Gibco: 15140122)) under the condition of 37°C and 5% CO2. • (2) The cells in logarithmic growth phase were harvested and counted using a […]. The trypan blue exclusion method was used to detect cell viability to ensure the cell viability was above 90%. • ③ The cell density was adjusted using 1640 complete medium, and then, the cells were seeded into a 96-well cell culture plate at 90 µL/well with a total of 2000 cells. • ④ A 10-fold drug solution was prepared starting from a maximum drug concentration of 10 µM and 4-fold serially diluted into10 concentrations. […] The luminescence values were read to collect the data. • ⑩ The data were analyzed using XLFit excel plugin version 5.5.0.5, and fitted with non-linear S-curve regression to obtain the dose-response curves and thus calculate the IC50 values. Y = Bottom + (Top-Bottom)/((1+(IC50/X))^(∧) HillSlope [formula]
(§1) "Top" refers to the maximum response, "Bottom" refers to the minimum response, and "HillSlope" refers to the slope of the curve.
(§2) "Max" represents the average value of the cell control+DMSO, and "Min" represents the average value of the medium control+DMSO.
(In general: In ATP-based viability assays light output follows the ATP content of the culture.)

The subject of another assay is Ba/F3-BCR-FGFR1 cells. In words: Inhibition of proliferation activity of Ba/F3-BCR-FGFR1 cells (CellTiter-Glo). Conditions: read-out: IC50 (nM) Ba/F3-BCR-FGFR1. As for the experimental part:
The present experiment used CellTiter-Glo® Luminescent Cell Viability Assay (Promega: G7573) kit, which was a homogeneous cell viability detection method and determined the cell viability of cultured cells by quantifying ATP. • ① Ba/F3-BCR-FGFR1 or Ba/F3-FGFR3-BAIAP2L1 cells were cultured in 1640 complete medium (Gibco: 11879020) (10% FBS (Gibco: 10091-148)+1% Pen Strep (Gibco: 15140122)) under the condition of 37°C and 5% CO2. • (2) The cells in logarithmic growth phase were harvested and counted using a […]. The trypan blue exclusion method was used to detect cell viability to ensure the cell viability was above 90%. • ③ The cell density was adjusted using 1640 complete medium, and then, the cells were seeded into a 96-well cell culture plate at 90 µL/well with a total of 2000 cells. • ④ A 10-fold drug solution was prepared starting from a maximum drug concentration of 10 µM and 4-fold serially diluted into10 concentrations. Then, 10 µL of each of the serially diluted compounds was transferred to the corresponding experimental wells of a 96-well cell plate, with two replicates for each drug concentration. • ⑤ The 96-well plate with the cells that had been treated with the drugs was placed under the condition of 37°C and 5% CO2 to be further cultured for 72 hours, and then analyzed by CTG. • ⑥ The CTG reagent was melted and the cell plate was equilibrated to room temperature for 30 minutes. • ⑦ 50 µL of the CTG solution was added to each well. • ⑧ The cell plate was shaken on an orbital shaker for 5 minutes to lyse the cells. • ⑨ The cell plate was placed at room temperature for 20 minutes to stabilize the luminescence signal. The luminescence values were read to collect the data. • ⑩ The data were analyzed using XLFit excel plugin version 5.5.0.5, and fitted with non-linear S-curve regression to obtain the dose-response curves and thus calculate the IC50 values. Y = Bottom + (Top-Bottom)/((1+(IC50/X))^(∧) HillSlope [formula]
as §1, §2

For the next assay, the system named is RT112-FGFR3-V555M cells. In words: Inhibition of proliferation activity of RT112-FGFR3-V555M cells (CellTiter-Glo). As to conditions: read-out: IC50 (nM) RT112-FGFR3-V555M. As for the experimental part:
The present experiment used CellTiter-Glo® Luminescent Cell Viability Assay (Promega: G7573) kit, which was a homogeneous cell viability detection method and determined the cell viability of cultured cells by quantifying ATP. • ① RT112-FGFR3-V555M cells were cultured in MEM complete medium (Gibco: 51200038) (10% FBS (Gibco: 10091-148)+1% Pen Strep (Gibco: 15140122)+1% NEAA (Gibco: 11140050)) under the condition of 37°C and 5% CO2. • (2) The cells in logarithmic growth phase were harvested and counted using a […]. The trypan blue exclusion method was used to detect cell viability to ensure the cell viability was above 90%. • ③ The cell density was adjusted using MEM complete medium, and then, the cells were seeded into a 96-well cell culture plate at 90 µL/well with a total of 5000 cells. • ④ The 96-well plate with the cells was placed under the condition of 37°C and 5% CO2 to be cultured for 24 hours. • ⑤ 24 hours later, a 10-fold drug solution was prepared starting from a maximum drug concentration of 10 µM and 4-fold serially diluted into10 concentrations. Then, 10 µL of each of the serially diluted compounds was transferred to the corresponding experimental wells of a 96-well cell plate, with two replicates for each drug concentration. • ⑥ The 96-well plate with the cells that had been treated with the drugs was placed under the condition of 37°C and 5% CO2 to be further cultured for 72 hours, and then analyzed by CTG. • ⑦ The CTG reagent was melted and the cell plate was equilibrated to room temperature for 30 minutes. • ⑧ 50 µL of the CTG solution was added to each well. • ⑨ The cell plate was shaken on an orbital shaker for 5 minutes to lyse the cells. • ⑩ The cell plate was placed at room temperature for 20 minutes to stabilize the luminescence signal. The luminescence values were read to collect the data. • ⑪ The data were analyzed using XLFit excel plugin version 5.5.0.5, and fitted with non-linear S-curve regression to obtain the dose-response curves and thus calculate the IC50 values. Y = Bottom + (Top-Bottom)/((1+(IC50/X))^(∧) HillSlope [formula]
as §1
"Max" represents the average value of the cell+DMSO control, and "Min" represents the average value of the medium control+DMSO.

Where [2] appears, read: Ba/F3-FGFR3-BAIAP2L1 cells, 72 hours, CTG.
Setting [3] is: Ba/F3-BCR-FGFR1 cells, 72 hours, CTG.
[4] abbreviates: RT112-FGFR3-V555M cells, 72 hours, CTG.

With `C[C@@H](Oc1ccc2[nH]nc(-c3ccc(S(C)(=N)=O)nc3)c2c1)c1c(Cl)cncc1Cl` (stereo partly drawn) [Comparative Example 85, (5-(5-((R)-1-(3,5-dichloropyridin-4-yl)ethoxy)-1H-indazol-3-yl)pyridin-2-yl)(imino)(methyl)-sulfanone, reference compound], the figures for the IC50 (in assay [1] (72 h); in the assay with Ba/F3-BCR-FGFR1 cells (72 h); with RT112-FGFR3-V555M cells (72 h)) were 5.4 nM, 615 nM and 334 nM, respectively.
Take `C[C@@H](Oc1cc(F)c2[nH]nc(-c3cnn(CCN4CCOCC4)c3)c2c1)c1c(Cl)cncc1Cl` [Example 12, (R)-4-(2-(4-(5-(1-(3,5-dichloropyridin-4-yl)ethoxy)-7-fluoro-1H-indazol-3-yl)-1H-pyrazol-1-yl)ethyl)morph oline]: the IC50 stood at 4.6 nM in assay [1] (setting [2]) and 592 nM with Ba/F3-BCR-FGFR1 cells (setting [3]). In addition, in assay [1], the “Selectivity (X) FGFR1/FGFR3” value worked out at 129 X.
Take `C[C@@H](Oc1ccc2[nH]nc(-c3cnn(C)c3)c2n1)c1c(Cl)cncc1Cl` [Example 29, (R)-5-(1-(3,5-dichloropyridin-4-yl)ethoxy)-3-(1-methyl-1H-pyrazol-4-yl)-1H-pyrazolo[4,3-b]pyridine]: the IC50 stood at 0.3 nM in assay [1] (setting [2]) and 38 nM in the assay on Ba/F3-BCR-FGFR1 cells (setting [3]). Besides, the “Selectivity (X) FGFR1/FGFR3” value in assay [1] is 127 X.
Taken in the same sequence, the figures for `C[C@@H](Oc1ccc2[nH]nc(-c3cnn(CCN4CCN(C)C(=O)C4)c3)c2n1)c1c(Cl)cncc1Cl` [Example 54, (R)-4-(2-(4-(5-(1-(3,5-dichloropyridin-4-yl)ethoxy)-1H-pyrazolo[4,3-b]pyridin-3-yl)-1H-pyrazol-1-yl)ethyl)-1-methylpiperazin-2-one] were 1.2 nM, 177 nM and 147 X.
Taken in the same sequence, the figures for `C[C@@H](Oc1ccc2[nH]nc(-c3cnn(CCN4CCS(=O)(=O)CC4)c3)c2n1)c1c(Cl)cncc1Cl` [Example 55, (R)-4-(2-(4-(5-(1-(3,5-dichloropyridin-4-yl)ethoxy)-1H-pyrazolo[4,3-b]pyridin-3-yl)-1H-pyrazol-1-yl)ethyl)thiomorph oline 1,1-dioxide] were 0.7 nM, 88.5 nM and 126 X.
Taken in the same sequence, the figures for `CC(Oc1ccc2[nH]nc(-c3cnn(C)c3)c2c1)c1cccc2ncccc12` (centres unmarked) [Example 88, 5-(1-((3-(1-methyl-1H-pyrazol-4-yl)-1H-indazol-5-yl)oxy)ethyl)quin oline] were 19 nM, 3420 nM and 180 X.
As for `CC(Oc1ccc2[nH]nc(-c3cnn(C)c3)c2c1)c1cccc2nccnc12` (centres unmarked) [Example 92, 5-(1-((3-(1-methyl-1H-pyrazol-4-yl)-1H-indazol-5-yl)oxy)ethyl)quin oxaline], the IC50 in assay [1] (setting [2]) came out at 2.8 nM; in the assay with Ba/F3-BCR-FGFR1 cells (setting [3]) it was 98.6 nM. In addition, the “Selectivity (X) FGFR1/FGFR3” value in assay [1] worked out at 35 X.
Consider `Cc1ccc2ncccc2c1C(C)Oc1ccc2[nH]nc(-c3cnn(C)c3)c2c1` (centres unmarked) [Example 95, 6-methyl-5-(1-((3-(1-methyl-1H-pyrazol-4-yl)-1H-indazol-5-yl)oxy)ethyl)quinolinee], for which the IC50 in assay [1] (setting [2]) was 8 nM; in the assay with Ba/F3-BCR-FGFR1 cells (setting [3]) it was 406 nM; in the assay on RT112-FGFR3-V555M cells (setting [4]), 110 nM. The “Selectivity (X) FGFR1/FGFR3” value in assay [1] is listed as 51 X.
Turning to `CC(Oc1ccc2[nH]nc(-c3cnn(C)c3)c2c1)c1cccn2ncnc12` (centres unmarked) [Example 101, 8-(1-((3-(1-methyl-1H-pyrazol-4-yl)-1H-indazol-5-yl)oxy)ethyl)-[1,2,4]triazolo[1,5-a]pyridine], the IC50 was found to be 10.6 nM in assay [1] (setting [2]) and 246 nM in the assay with Ba/F3-BCR-FGFR1 cells (setting [3]). In addition, in assay [1], the “Selectivity (X) FGFR1/FGFR3” value worked out at 23 X.
Regarding `CC(Oc1ccc2[nH]nc(-c3cnn(C)c3)c2c1)c1c(C(F)F)ccc2ncccc12` (centres unmarked) [Example 127, 6-(difluoromethyl)-5-(1-((3-(1-methyl-1H-pyrazol-4-yl)-1H-indazol-5-yl)oxy)ethyl)quinoline], the IC50 is 4.8 nM in assay [1] (setting [2]), 941 nM in the assay on Ba/F3-BCR-FGFR1 cells (setting [3]) and 118 nM in the assay with RT112-FGFR3-V555M cells (setting [4]). In addition, the “Selectivity (X) FGFR1/FGFR3” value in assay [1] was 195 X.
For `CC(Oc1ccc2[nH]nc(-c3cnn(C)c3)c2c1)c1c(CF)ccc2ncccc12` (centres unmarked) [Example 130, 6-(fluoromethyl)-5-(1-((3-(1-methyl-1H-pyrazol-4-yl)-1H-indazol-5-yl)oxy)ethyl)q uinoline], the IC50 stood at 12.9 nM in assay [1] (setting [2]), 1190 nM with Ba/F3-BCR-FGFR1 cells (setting [3]) and 152 nM in the assay with RT112-FGFR3-V555M cells (setting [4]).
Take `CC(Oc1ccc2[nH]nc(-c3cnn(C)c3)c2c1)c1cc(Cl)cc2nccnc12` (centres unmarked) [Example 136, 7-chloro-5-(1-((3-(1-methyl-1H-pyrazol-4-yl)-1H-indazol-5-yl)oxy)ethyl)qu inoxaline]: the IC50 in assay [1] (setting [2]) stood at 3.4 nM; with Ba/F3-BCR-FGFR1 cells (setting [3]) it was 377 nM; in the assay with RT112-FGFR3-V555M cells (setting [4]), 119 nM. In addition, in assay [1], the “Selectivity (X) FGFR1/FGFR3” value came to 111 X.
Taken in the same sequence, the figures for `Cc1cc2nccnc2c(C(C)Oc2ccc3[nH]nc(-c4cnn(C)c4)c3c2)n1` (centres unmarked) [Example 183, 7-methyl-5-(1-((3-(1-methyl-1H-pyrazol-4-yl)-1H-indazol-5-yl)oxy)ethyl)pyridino [3,4-b]pyrazine] were 0.4 nM, 55.3 nM, 10.4 nM and 139 X.
Taken in the same sequence, the figures for `COCC(=O)N1CC(n2cc(-c3n[nH]c4ccc(OC(C)c5cccc6nccnc56)cc34)cn2)C1` (centres unmarked) [Example 188, 2-methoxy-1-(3-(4-(5-(1-(quinoxalin-5-yl)ethoxy)-1H-indazol-3-yl)-1H-pyrazol-1-yl)azetidin-1-yl)ethan-1-one] were 3.1 nM, 277 nM, 70.1 nM and 91 X.
